Experimental data: patent publication US20240336611A1 (Insilico Medicine IP Limited, priority 2021, published 2024)

Key:
[1] = Metabolic stability in human liver microsomes; format: in vitro ADME; settings: LM Clint (intrinsic clearance); 1 μM test compound, 0.5 mg protein/mL microsome, 37° C., up to 60 min
Method: 2.1. Test Compound and Control Working Solution Preparation: Working solution: 5 µL of compound and control stock solution (10 mM in dimethyl sulfoxide (DMSO)) were diluted with 495 μL of acetonitrile (ACN) (intermediate solution concentration: 100 μM, 99% ACN).
2.2.1. […] 2.2.2. Preparation Procedure: The appropriate amount of NADPH powder were weighed and diluted into a 10 mM MgCl2 solution (working solution concentration: 10 unit/mL; final concentration in reaction system: 1 unit/mL).
2.3.2. Preparation Procedure: The appropriate concentrations of microsome working solutions were prepared in 100 mM potassium phosphate buffer. 2.4. Stop Solution Preparation: Cold (4° C.) acetonitrile (ACN) containing 200 ng/mL tolbutamide and 200 ng/mL labetalol as internal standards (IS) were used as the stop solution.
2.5.1. Pre-warm empty ‘Incubation’ plates T60 and NCF60 for 10 min minutes. 2.5.2. Liver microsomes were diluted to 0.56 mg/mL in 100 mM phosphate buffer. 2.5.3. 445 uL microsome working solutions (0.56 mg/mL) were transferred into pre-warmed ‘Incubation’ plates T60 and NCF60. Then ‘Incubation’ plates T60 and NCF60 were pre-incubated for 10 min at 37° C. with constant shaking. 54 μL liver microsomes were transferred to blank plate, then 6 μL NAPDH cofactor were added to the blank plate, and then 180 μL quenching solution can be added to blank plate. 2.5.4 5 μL compound working solution (100 μM) were added into ‘incubation’ plates (T60 and NCF60) containing microsomes and mix 3 times thoroughly. 2.5.5. For the NCF60 plate, 50 uL of buffer were added and were mixed 3 times thoroughly. Start timing; plate was incubated at 37° C. for 60 min while shaking. 2.5.6. In ‘Quenching’ plate TO, 180 μL quenching solution were added and 6 μL NAPDH cofactor were added. Ensured the plate was chilled to prevent evaporation. 2.5.7. For the T60 plate, were mixed 3 times thoroughly, and immediately removed 54 μL mixture for the 0-min time point to ‘Quenching’ plate. Then 44 μL NAPDH cofactor were added to incubation plate (T60). Start timing; plate were incubated at 37° C. for 60 min while shaking.
2.5.8. At 5, 10, 20, 30, and 60 min, 180 μL quenching solution were added to ‘Quenching’ plates, mix once, and were serially transferred 60 μL sample from T60 plate per time point to ‘Quenching’ plates.
2.5.9. For NCF60: were mixed once, and 60 μL sample were transferred from the NCF60 incubation to ‘Quenching’ plate containing quenching solution at the 60-min time point.
2.5.10. All sampling plates were shaken for 10 min, then centrifuged at 4000 rpm for 20 minutes at 4° C. 2.5.11. 80 μL supernatant were transferred into 240 μL HPLC water, and were mixed by plate shaker for 10 min. 2.5.12. Each bioanalysis plate were sealed and shaken for 10 minutes prior to LC-MS/MS analysis.
3.1. The equation of first order kinetics were used to calculate T1/2 and Intrinsic clearance (CLint mic) in (μL/min/mg).
Equation of first order kinetic.

[2] = target: T1, TNIK kinase [amino acid sequence (1-367), Invitrogen] (Homo sapiens, UniProt Q9UKE5); assay: TNIK kinase inhibition assay (Z-lyte FRET-peptide); format: biochemical; settings: 0.625 nM TNIK kinase, 2 μM Ser/Thr 7 peptide, 64 μM ATP, one hour at room temperature
T1 construct: purchased Invitrogen
T1 sequence (Q9UKE5 1-367): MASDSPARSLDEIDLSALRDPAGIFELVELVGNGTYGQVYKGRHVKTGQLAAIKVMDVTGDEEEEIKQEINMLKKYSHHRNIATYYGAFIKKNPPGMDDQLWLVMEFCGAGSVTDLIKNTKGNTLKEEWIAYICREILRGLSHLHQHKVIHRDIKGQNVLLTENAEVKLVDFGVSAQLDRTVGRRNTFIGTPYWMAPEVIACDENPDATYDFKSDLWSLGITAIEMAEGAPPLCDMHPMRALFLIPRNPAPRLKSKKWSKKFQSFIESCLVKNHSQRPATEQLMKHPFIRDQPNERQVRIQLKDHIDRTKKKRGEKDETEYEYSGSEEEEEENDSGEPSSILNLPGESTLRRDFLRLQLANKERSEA

Human Liver Microsome (μM/min/mg) [1] | IC50 [2] [nM] | Compound
++ (10-100 μM/min/mg as ++) | 12 to 150 | CC(C)n1cnc(-c2ccc(F)cc2)c1-c1nc(C(=O)Nc2ccc(C3CN(C)C3)cn2)co1 [Compound 102, 2-(4-(4-fluorophenyl)-1-isopropyl-1H-imidazol-5-yl)-N-(5-(1-methylazetidin-3-yl)pyridin-2-yl)oxazole-4-carboxamide]
+ (>100 μM/min/mg as +) | 12 to 150 | O=C(Nc1ccc(C2COC2)cc1F)c1coc(-c2c(-c3ccc(F)cc3)ncn2C2CC(F)(F)C2)n1 [Compound 81, 2-(1-(3,3-difluorocyclobutyl)-4-(4-fluorophenyl)-1H-imidazol-5-yl)-N-(2-fluoro-4-(oxetan-3-yl)phenyl)oxazole-4-carboxamide]
++ (10-100 μM/min/mg as ++) | 1 to 12 | [2H]C([2H])([2H])N1CCN(c2ccc(NC(=O)c3c[nH]c(-c4c(-c5ccc(F)cc5)ncn4C(C)C)n3)nc2)CC1 [Compound 124, 2-[5-(4-fluorophenyl)-3-isopropyl-imidazol-4-yl]-N-[5-[4 (trideuteriomethyl)piperazin-1-yl]-2-pyridyl]-1H-imidazole-4-carboxamide]
++ (10-100 μM/min/mg as ++) | 1 to 12 | CC(C)c1onc(-c2ccc(F)cc2)c1-c1nc(C(=O)Nc2ccc(C3CN(C)C3)cc2F)cs1 [Compound 88, N-(2-fluoro-4-(1-methylazetidin-3-yl)phenyl)-2-(3-(4-fluorophenyl)-5-isopropylisoxazol-4-yl)thiazole-4-carboxamide]
++ (10-100 μM/min/mg as ++) | 1 to 12 | [2H]C([2H])([2H])N1CCN(c2ccc(NC(=O)c3c[nH]c(-c4c(-c5ccc(F)cc5)ncn4C([2H])(C)C)n3)c(F)c2)CC1 [Compound 127, 2-[3-(1-deuterio-1-methyl-ethyl)-5-(4-fluorophenyl)imidazol-4-yl]-N-[2-fluoro-4-[4-(trideuteriomethyl)piperazin-1-yl]phenyl]-1H-imidazole-4-carboxamide]
++ (10-100 μM/min/mg as ++) | 1 to 12 | CC(C)n1cnc(-c2ccc(F)cc2)c1-c1nc(C(=O)Nc2ccc(N3CCOCC3)cn2)cs1 [Compound 99, 2-(4-(4-fluorophenyl)-1-isopropyl-1H-imidazol-5-yl)-N-(5-morpholinopyridin-2-yl)thiazole-4-carboxamide]
++ (10-100 μM/min/mg as ++) | 1 to 12 | O=C(Nc1ccc(N2CCOCC2)cn1)c1csc(-c2c(-c3ccc(F)cc3)ncn2C2CC(F)(F)C2)n1 [Compound 65, 2-(1-(3,3-difluorocyclobutyl)-4-(4-fluorophenyl)-1H-imidazol-5-yl)-N-(5-morpholinopyridin-2-yl)thiazole-4-carboxamide]
++ (10-100 μM/min/mg as ++) | 1 to 12 | CC(C)n1cnc(-c2ccc(F)cc2)c1-c1nc(C(=O)Nc2ccc(N3CCOCC3)cc2F)cs1 [Compound 100, N-(2-fluoro-4-morpholinophenyl)-2-(4-(4-fluorophenyl)-1-isopropyl-1H-imidazol-5-yl) thiazole-4-carboxamide]
++ (10-100 μM/min/mg as ++) | 1 to 12 | [2H]C([2H])([2H])N1CC(c2ccc(NC(=O)c3nc(-c4c(-c5ccc(F)cc5)ncn4C4CCC4)cs3)c(F)c2)C1 [Compound 122, 4-[3-cyclobutyl-5-(4-fluorophenyl)imidazol-4-yl]-N-[2-fluoro-4-[1-(trideuteriomethyl)azetidin-3-yl]phenyl]thiazole-2-carboxamide]
+ (>100 μM/min/mg as +) | > 150 | O=C(Nc1ccc(C2COC2)cn1)c1coc(-c2c(-c3ccc(F)cc3)ncn2C2CC(F)(F)C2)n1 [Compound 63, 2-(1-(3,3-difluorocyclobutyl)-4-(4-fluorophenyl)-1H-imidazol-5-yl)-N-(5-(oxetan-3-yl)pyridin-2-yl)oxazole-4-carboxamide]
+ (>100 μM/min/mg as +) | 1 to 12 | CC(C)n1cnc(-c2ccc(F)cc2)c1-c1nc(C(=O)Nc2ccc(N3CCN(C)CC3)cn2)cs1 [Compound 7, 2-(4-(4-fluorophenyl)-1-isopropyl-1H-imidazol-5-yl)-N-(5-(4-methylpiperazin-1-yl)pyridin-2-yl)thiazole-4-carboxamide]
++ (10-100 μM/min/mg as ++) | 1 to 12 | CC(C)n1cnc(-c2ccc(F)cc2)c1-c1nc(C(=O)Nc2ccc(N3CCN(C)CC3)cc2)cs1 [Compound 2, 2-(4-(4-fluorophenyl)-1-isopropyl-1H-imidazol-5-yl)-N-(4-(4-methylpiperazin-1-yl)phenyl)thiazole-4-carboxamide]
++ (10-100 μM/min/mg as ++) | 1 to 12 | [2H]C([2H])([2H])N1CC(c2ccc(NC(=O)c3csc(-c4c(-c5ccc(F)cc5)noc4C(C)C)n3)nc2)C1 [Compound 115, 2-[3-(4-fluorophenyl)-5-isopropyl-isoxazol-4-yl]-N-[5-[1-(trideuteriomethyl)azetidin-3-yl]-2-pyridyl]thiazole-4-carboxamide]
+ (>100 μM/min/mg as +) | 1 to 12 | CC(C)n1cnc(-c2ccc(F)cc2)c1-c1csc(C(=O)Nc2ccc(N3CCN(C)CC3)cn2)n1 [Compound 13, 4-(4-(4-fluorophenyl)-1-isopropyl-1H-imidazol-5-yl)-N-(5-(4-methylpiperazin-1-yl)pyridin-2-yl)thiazole-2-carboxamide]
++ (10-100 μM/min/mg as ++) | 1 to 12 | CCN1CC(c2ccc(NC(=O)c3csc(-c4c(-c5ccc(F)cc5)ncn4C(C)C)n3)nc2)C1 [Compound 91, N-(5-(1-ethylazetidin-3-yl)pyridin-2-yl)-2-(4-(4-fluorophenyl)-1-isopropyl-1H-imidazol-5-yl)thiazole-4-carboxamide]

Compound | Human Liver Microsome (μM/min/mg) [1] | IC50 [2] [nM]
CC(C)c1noc(-c2ccc(F)cc2)c1-c1nc(C(=O)Nc2ccc(N3CC4CC(C3)N4C)cc2F)cs1 [Compound 97, N-(2-fluoro-4-(6-methyl-3,6-diazabicyclo[3.1.1]heptan-3-yl)phenyl)-2-(5-(4-fluorophenyl)-3-isopropylisoxazol-4-yl)thiazole-4-carboxamide] | ++ (10-100 μM/min/mg as ++) | 1 to 12
CC(C)c1onc(-c2ccc(F)cc2)c1-c1nc(C(=O)Nc2ccc(N3CC4CC(C3)N4C)cn2)cs1 [Compound 96, 2-(3-(4-fluorophenyl)-5-isopropylisoxazol-4-yl)-N-(5-(6-methyl-3,6 diazabicyclo[3.1.1]heptan-3-yl)pyridin-2-yl)thiazole-4-carboxamide] | ++ (10-100 μM/min/mg as ++) | 1 to 12
CC(C)n1cnc(-c2ccc(F)cc2)c1-c1nc(C(=O)Nc2ccc(N3C[C@H]4CC[C@@H](C3)N4C)cn2)cs1 [Compound 41, 2-(4-(4-fluorophenyl)-1-isopropyl-1H-imidazol-5-yl)-N-(5-((1R,5S)-8-methyl-3,8-diazabicyclo[3.2.1]octan-3-yl)pyridin-2-yl)thiazole-4-carboxamide] | ++ (10-100 μM/min/mg as ++) | 1 to 12
CC(C)n1cnc(-c2ccc(F)cc2)c1-c1nc(C(=O)Nc2ccc(N3CC4CC(C3)N4C)cn2)cs1 [Compound 44, 2-(4-(4-fluorophenyl)-1-isopropyl-1H-imidazol-5-yl)-N-(5-(6-methyl-3,6-diazabicyclo[3.1.1]heptan-3-yl)pyridin-2-yl)thiazole-4-carboxamide] | ++ (10-100 μM/min/mg as ++) | 1 to 12
CC(C)n1cnc(-c2ccc(F)cc2)c1-c1nc(C(=O)Nc2ccc(N3C[C@H]4CC[C@@H](C3)N4C)cn2)co1 [Compound 40, 2-(4-(4-fluorophenyl)-1-isopropyl-1H-imidazol-5-yl)-N-(5-((1R,5S)-8-methyl-3,8-diazabicyclo[3.2.1]octan-3-yl)pyridin-2-yl)oxazole-4-carboxamide] | + (>100 μM/min/mg as +) | 1 to 12
